The values below come from EP1140984B1, “SELECTIVE INHIBITORS OF MMP-12” (Aventis Pharmaceuticals Inc., priority 1998, dated 2000).

One test deals with T1, MMP-1 (Homo sapiens, UniProt P03956).
T1 construct: The active MMP-1 was obtained by treatment of proMMP-1 with trypsin; endogenous in cells; host or cells: human rheumatoid synovial fibroblasts stimulated with macrophage-conditioned medium
T1 sequence (P03956 100-469): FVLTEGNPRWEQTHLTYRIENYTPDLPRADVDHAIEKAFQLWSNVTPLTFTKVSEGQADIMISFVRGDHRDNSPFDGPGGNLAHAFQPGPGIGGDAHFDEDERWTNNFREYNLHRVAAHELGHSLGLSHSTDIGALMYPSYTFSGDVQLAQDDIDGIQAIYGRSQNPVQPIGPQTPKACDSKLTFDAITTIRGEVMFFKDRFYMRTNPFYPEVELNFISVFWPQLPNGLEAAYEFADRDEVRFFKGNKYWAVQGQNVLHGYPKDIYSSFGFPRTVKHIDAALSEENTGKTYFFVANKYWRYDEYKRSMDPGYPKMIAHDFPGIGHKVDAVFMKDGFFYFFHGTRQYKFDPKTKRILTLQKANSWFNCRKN
Briefly: Determination of inhibition constant (Ki) for MMP-1, fluorogenic substrate assay. In kind it is biochemical. The settings on record: substrate Mca-Pro-Leu-Gly-Leu-Dpa-Ala-Arg-NH2, 37°C, pH 7.6, [S] = 1 µM, [MMP-1] = 0.8 nM. The method, then:
ProMMP-1 (EC 3.4.24.7; interstitial collagenase) was purified from culture medium of human rheumatoid synovial fibroblasts stimulated with macrophage-conditioned medium according to Okada, Y. et al., J. Biol. Chem. 261, 14245-14255 (1986). The active MMP-1 was obtained by treatment of proMMP-1 with trypsin (5 µg/mL) at 37°C for 30 minutes, followed by addition of soybean trypsin inhibitor (50 µg/mL).
The activated MMP-1 is assayed using a fluorogenic substrate, Mca-Pro-Leu-Gly-Leu-Dpa-Ala-Arg-NH2, Knight, C.G. et al., FEBS Lett. 296, 263-266 (1992), at 37°C in 2.0 mL of assay buffer containing 50 mM Tris, pH 7.6, 0.2 M sodium chloride, 50 mM calcium chloride, and 0.02% Brij-35. The increase in fluorescence due to cleavage of Gly-Leu peptide bond by MMP-3 was monitored with Perkin-Elmer LS50B Fluorimeter (λex 328 nm, λem 393 nm, excitation slit 2.5, emission slit 10). Substrate and inhibitor stock solutions were made in DMF. For determination of Ki values for MMP-1 inhibitors, a series of intermediate inhibitor solutions were prepared in DMF and 1 or 2 µL of the diluted inhibitor solution was mixed with 1 µL of 2 mM substrate solution in DMF in a quartz cuvette containing 2 mL of assay buffer. The enzyme (10 µL of 0.2 µM MMP-3 dilution in assay buffer) was added at the last to start the reaction. For routine measurement of a Ki value for a reversible, competitive inhibitor, the initial rates in the presence of at least four inhibitor concentrations (two concentrations above K; and two concentrations below Ki) were measured using [S] = 1 µM (<< Km) and [MMP-1] = 0.8 nM. Under these conditions, the measured Ki, app is close to true Ki.
The Ki for a competitive inhibitor is calculated using: v0/vi = (1 + [I]/Ki,app) and Ki = Ki,app/(1 + [S]/Km), where v0 is the initial rate in the absence of inhibitor, vi is the initial rate in the presence of inhibitor at the concentration of [I], [S] is the substrate concentration, and Km is the Michaelis constant. If slow binding is observed (i.e. if the approach to the binding equilibrium is slow), the final steady-state rate rather than the initial rate is taken as vi.

The target of a further test is T2, MMP-2 (Homo sapiens, UniProt P08253).
T2 construct: made in house; host or cells: Pichia pastoris (strains KM71 / SMD1168, clone 24S; vector pHIL-D2)
T2 sequence (P08253 110-660): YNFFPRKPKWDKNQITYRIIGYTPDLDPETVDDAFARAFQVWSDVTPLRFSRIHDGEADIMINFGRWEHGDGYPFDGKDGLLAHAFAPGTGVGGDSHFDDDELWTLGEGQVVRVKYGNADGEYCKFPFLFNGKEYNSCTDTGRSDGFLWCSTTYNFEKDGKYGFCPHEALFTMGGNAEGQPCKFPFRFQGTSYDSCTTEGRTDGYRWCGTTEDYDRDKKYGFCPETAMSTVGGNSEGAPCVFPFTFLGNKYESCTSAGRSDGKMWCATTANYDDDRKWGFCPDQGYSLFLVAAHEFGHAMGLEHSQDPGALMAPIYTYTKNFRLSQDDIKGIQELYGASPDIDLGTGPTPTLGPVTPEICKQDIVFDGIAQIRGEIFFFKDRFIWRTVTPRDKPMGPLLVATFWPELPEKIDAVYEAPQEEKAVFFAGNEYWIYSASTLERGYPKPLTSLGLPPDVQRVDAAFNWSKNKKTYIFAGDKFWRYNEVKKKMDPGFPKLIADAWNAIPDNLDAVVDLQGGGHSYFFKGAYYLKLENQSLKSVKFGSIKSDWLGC
Briefly: Determination of inhibition constant (Ki) for MMP-2, fluorogenic substrate assay. In kind it is biochemical. The following applies: substrate Mca-Pro-Leu-Gly-Leu-Dpa-Ala-Arg-NH2, 37°C, pH 7.6, [S] = 1 µM, [MMP-2] = 0.4 nM. From the text: Recombinant MMP-2 was purified from the fermentation broth of yeast Pichia pastoris that carries the integrated MMP-2 gene into its chromosome. In brief, the full-length cDNA for MMP-2 was obtained by reverse transcription of RNA from human melanoma A375M cell line by the reverse transcriptase polymerase chain reaction (RT-PCR) using sequence specific oligonucleotides. The nucleotide sequence was confirmed by Taq cycle sequencing. The cDNA was ligated into the Pichia pastoris expression vector pHIL-D2 in such a way that the expression of pro-MMP-2 is under the control of the methanol inducible alcohol oxidase promoter. The expression construct was digested with either SalI or NsiI and used to transform the Pichia pastoris strains KM71 and SMD1168. A large-scale culture of a selected clone designated 24S was performed in a high cell density fermentor and the recombinant MMP-2 was purified from the culture supernatant by gelatin-sepharose 4B (Pharmacia). The enzyme is sufficiently pure at this stage for routine measurement of inhibition. If desired, however, the enzyme may be further purified by AcA 44 gel filtration (Spectra).
The active MMP-2 was obtained by activation of proMMP-2 at 37°C for 1 h with 4-aminophenylmercuric acetate which was then removed by a Sephadex G-50 spin column. The enzyme is assayed using a fluorogenic substrate, Mca-Pro-Leu-Gly-Leu-Dpa-Ala-Arg-NH2, at 37°C in 2.0 mL of assay buffer containing 50 mM Tris, pH 7.6, 0.2 M sodium chloride, 50 mM calcium chloride, 0.02% Brij-35, and 50 µM β-mercaptoethanol. The increase in fluorescence is monitored (λex 328 nm, λem 393 nm). Substrate and inhibitor stock solutions are made in DMF. The enzyme is added at the last to start the reaction. For routine measurement of a Ki value for a reversible, competitive inhibitor, the initial rates in the presence of at least four inhibitor concentrations (two inhibitor concentrations above Ki and two below Ki) are measured using [S] = 1 µM (<<Km) and [MMP-2] = 0.4 nM. Under these conditions, the measured Ki, app is close to true Ki.

Structures can show the parent of a compound that is named as a salt.

The term Ki denotes the dissociation constant of the complex between target and ligand, obtained from inhibition or displacement. Low readings indicate tighter binding, high ones weaker binding. With `CC(C)C[C@H](NC(=O)C(S)C(C)C)C(=O)N[C@@H](Cc1ccccc1)C(=O)O` (stereo in doubt) [Example 3, (S)-2-Mercapto-3-methylbutyroyl-(L)-leucyl-(L)-phenylalanine], the Ki was found to be 518 nM at MMP-1 and 784 nM on MMP-2. For `CNC(=O)[C@H](Cc1ccccc1)NC(=O)[C@H](CCc1ccccc1)NC(=O)[C@@H](S)C(C)C` [Example 7, (S)-2-Mercapto-3-methylbutyroyl-(L)-homo-phenylalanyl-(L)-phenylalanine N-methyl amide], in that order: 465 nM and 3.3 nM. For the molecule `CCCC(S)C(=O)N[C@@H](CCc1ccccc1)C(=O)N[C@@H](Cc1ccccc1)C(=O)NC` (stereo partly drawn) [Example 6, (S)-2-Mercaptopentanoyl-(L)-homo-phenylalanyl-(L)-phenylalanine N-methyl amide], the Ki on MMP-1 amounted to 360 nM. `CSCC[C@H](NC(=O)C(S)C(C)C)C(=O)N[C@@H](Cc1ccccc1)C(=O)O` (stereo in doubt) [Example 4, (S)-2-Mercapto-3-methylbutyroyl-(L)-methionyl-(L)-phenylalanine]: the results for the Ki on MMP-1 and at MMP-2 were 153 nM and 798 nM, respectively.

On to `CC(C)C(S)C(=O)N[C@@H](CCCCN)C(=O)N[C@@H](Cc1ccccc1)C(=O)O` (stereo in doubt) [Example 5, (S)-2-Mercapto-3-methylbutyroyl-(L)-lysyl-(L)-phenylalanine trifluoroacetic acid salt], for which the Ki was 3910 nM on MMP-1 and 1740 nM at MMP-2. Take `CCCC(S)C(=O)N[C@@H](CCc1ccccc1)C(=O)N[C@@H](Cc1ccccc1)C(=O)O` (stereo partly shown) [Example 1, 2-Mercapto-pentanoyl-(L)-homo-phenylalanyl-(L)-phenylalanine]: the Ki on MMP-1 worked out at 5800 nM; on MMP-2 it was 1800 nM. As for `CC(C)[C@H](S)C(=O)N[C@@H](CCc1ccccc1)C(=O)N[C@@H](Cc1ccccc1)C(=O)O` [Example 2, (S)-2-Mercapto-3-methylbutyroyl-(L)-homo-phenylalanyl-(L)-phenylalanine], the Ki on MMP-1 stood at 5110 nM; at MMP-2, 731 nM.
